Laboratory results reported in patent publication US20060058346A1, “Novel enantiomers of etrahydroisoquinoline derivatives and theirpharmaceutically acceptable salts, their preparations and pharmaceutical compositions” (priority 2002, published 2006).
Where two headings read alike, the source gives them in different places.

Key:
left auricle muscle = experiment: Contractile force of left auricle muscle excised from rats; design: species or system rat; conditions: vehicle control:100%
Description: (§1) Immediately after Sprague-Dawley rats (female or male) were anaesthetized with pentobarbital sodium (50 mg/kg, i.m.), the thorax was opened to excise the heart. The heart was submerged in Krebs solution, and left auricle muscle and right auricle muscle were then isolated. The left auricle muscle was placed in an organ bath for recording of contractile force, and applied with electrical field stimulation (voltage 10% higher than threshold voltage, 1 Hz frequency, 5 ms duration). In the case of right auricle muscle, which contracts spontaneously, the number of continuous beats was recorded. In this experiment, to measure contractile fore of the two auricle muscles, the organ bath was warmed to 37° C., and as a physiological solution, Krebs solution (119.8 mM NaCl, 4.6 mM KCl, 2.5 mM CaCl2, 1.2 mM MgCl2, 25 mM NaHCO3, 1.2 mM KH2PO4, 10 mM glucose, 1 mM EDTA, pH 7.4) was used. The Krebs solution (pH 7.4) was continuously saturated with a gas mixture of 95% O2 and 5% CO2. The auricle muscle was under a tension of 1 g, and Krebs solution was exchanged with fresh solution at intervals of 20 minutes while equilibrium was maintained during a recording period of 60 minutes.

rat PRP = conditions: epinephrine; from Yun-Choi et al. 2001; read-out: IC50 platelet aggregation, epinephrine, racemic mixture; cited from earlier work
LPS-injected rat [1] = experiment: Serum/plasma level of nitrate/nitrite (NOx) in LPS-injected rat; assay type: in vivo; conditions: 10 mg/kg compound; LPS 20 mg/kg
Description: The rats were divided into three groups; (1) LPS-injected group (LPS was administered to abdominal cavity in an amount of 20 mg/kg), (2) enantiomer-injected group (LPS+the compounds represented by formula 3 to 8 was administered to abdominal cavity) or (3) saline solution-injected group. After administration of LPS, the rats were anaesthetized with pentobarbital. The blood was collected from rats by using heart punching. The plasma level of nitrite was measured by using the nitrate reductase derived from Aspergillus species, where the nitrate was reduced by enzyme. Particularly, the plasma was diluted with distilled water in a ratio of 1:10. Analysis buffering solution (KH2PO4 50 Mm, NADPH 0.6 Mm, FAD 5 Mm and nitrate reductase 10 U/ml, Ph 5.5) was added to the said plasma. Thereafter, the reaction was accomplished at 37° C. for 30 min. The plasma level of nitrite was measured by using sodium nitrite as a standard, and Griess solution. Standard curve to nitrite was calculated from the result derived from incubation in analysis buffering solution.

right auricle muscle = experiment: Heart rates (beats) of right auricle muscle excised from rats; design: species or system rat; conditions: vehicle control:100%
Description: as §1

Sprague-Dawley rats = experiment: Acute toxicity in rat (LD50); assay type: in vivo; conditions: for LD50, Intraperitioneal injection: single intraperitoneal injection; for LD50, Intravenous injection: single intravenous injection
Description: (§2) Sprague-Dawley rats (six weeks) were used as test sample. Each group was comprised of two rats. […] The said emulsion was administered to two rats one times using intravenous injection and intraperitoneal injection.

[2] = system: RAW 264.7 macrophage cells; experiment: Nitric oxide production in macrophage cell stimulated by LPS (Griess); assay type: cell-based; conditions: LPS 1 μg/ml
Description: RAW 264.7 macrophage cells were plated on 100 mm culture dishes at a density of 1-2×10^5 cells. Thereafter, the said macrophage cell was incubated in DMEM medium containing 10% fetal calf serum (heat-inactivated), 100 U/ml penicillin, and […] streptomycin in a CO2 incubator. The said macrophage cell was incubated therein confluently. The said incubated macrophage cells were transferred to serum-free DMEM medium, and further incubated therein for about 24 hours. Thereafter, macrophage cells were stimulated with LPS (1 μg/ml) for about 8 hours. (In this progress, experimental group was divided into two groups, group to which the compound was administered, and group to which the compound was not.) Then, nitrite quantification was achieved by performing calorimetric reaction for produced nitrite with Griess reagent and then measuring absorbance at 550 nm, while using NaNO2 as a standard.

Rat Thoracic Aortas = experiment: Relaxation of rat thoracic aortas contracted by phenylephrine; conditions: 0.1 μM phenylephrine contraction
Description: Experimental group was divided into two groups, group containing endothelial cells of blood vessel and group not containing. Blood vessel of thoracic aortas was induced to contract by treatment with 0.1 μM of phenyleprine under tension of 1 g. Upon arriving at equilibrium, the enantiomers were added to an organ bath in a cumulative manner. Relaxation of thoracic aortas was recorded using a physiograph (Grass P7), calculating their response to the compounds with consideration of their added amount.

LPS-injected rat [3] = conditions: from Kang et al. 1999; cited from earlier work
[4] = Acute toxicity in rat (LD50); assay type: in vivo; conditions: Sprague-Dawley, in vivo
Description: as §2

[5] = group containing endothelial cells, read-out: IC50 (E+), concentration showing relaxation response of 50%
[6] = group not containing endothelial cells, read-out: IC50 (E−), concentration showing relaxation response of 50%

Structure (SMILES)	Contractile Force of Auricle Muscles (left auricle muscle; 1 × 10^−4 M) [%]	Contractile Force of Auricle Muscles (left auricle muscle; 1 × 10^−5 M) [%]	Contractile Force of Auricle Muscles (left auricle muscle; 1 × 10^−6 M) [%]	Contractile Force of Auricle Muscles (left auricle muscle; 1 × 10^−7 M) [%]	Contractile Force of Auricle Muscles (left auricle muscle; 3 × 10^−5 M) [%]	Contractile Force of Auricle Muscles (left auricle muscle; 3 × 10^−6 M) [%]	Contractile Force of Auricle Muscles (left auricle muscle; 3 × 10^−7 M) [%]	IC50 (rat PRP) [µM]	Heart Rates of Auricle Muscles (right auricle muscle; 1 × 10^−4 M) [%]	Heart Rates of Auricle Muscles (right auricle muscle; 1 × 10^−5 M) [%]	Heart Rates of Auricle Muscles (right auricle muscle; 1 × 10^−6 M) [%]	Heart Rates of Auricle Muscles (right auricle muscle; 1 × 10^−7 M) [%]	Heart Rates of Auricle Muscles (right auricle muscle; 3 × 10^−5 M) [%]	Heart Rates of Auricle Muscles (right auricle muscle; 3 × 10^−6 M) [%]	Heart Rates of Auricle Muscles (right auricle muscle; 3 × 10^−7 M) [%]	LD50, Intraperitioneal injection (Sprague-Dawley rats) [mg/kg]	LD50, Intravenous injection (Sprague-Dawley rats) [mg/kg]	NO production by LPS in macrophage cell ([2]; compound 10 μM) [µM]	NO production by LPS in macrophage cell ([2]; compound 50 μM) [µM]	NO production by LPS in macrophage cell ([2]; compound 100 μM) [µM]	further results
Oc1ccc(CC2NCCc3cc(O)c(O)cc32)cc1 (racemic) [Racemic mixture of formula 3 and formula 4, higenamine, reference compound]	300	260	180	115	280	240	130	7.2	200	140	115	110	160	125	110	280	98	21.3	14.3	15.2	plasma level of NOx (LPS-injected rat [1]): 75 ± 4 µM; IC50 (Rat Thoracic Aortas; [5]): 9.81 µM; IC50 (Rat Thoracic Aortas; [6]): 5.61 µM; survival, racemic mixture (LPS-injected rat [3]): 80%
Oc1cc2c(cc1O)C(Cc1cccc3ccccc13)NCC2 (racemic) [Racemic mixture of formula 5 and formula 6, 1-α-naphthylmethyl-6,7-dihydroxy-1,2,3,4-tetrahydroisoquioline, reference compound]	490	400	310	140	430	360	200	1.7	135	130	120	115	130	120	115	242	92	31	28	26	IC50 (Rat Thoracic Aortas; [5]): 0.105 µM; IC50 (Rat Thoracic Aortas; [6]): 6.41 µM; survival, racemic mixture (LPS-injected rat [3]): 90%
Oc1cc2c(cc1O)C(Cc1ccc3ccccc3c1)NCC2 (racemic) [Racemic mixture of formula 7 and formula 8, 1-β-naphthylmethyl-6,7-dihydroxy-1,2,3,4-tetrahydroisoquinoline, reference compound]	310	250	180	110	270	220	140	6.3	140	140	125	110	140	135	120			45	40	39	LD50 ([4]; ip, single intraperitoneal injection, read-out: LD50, Intraperitioneal injection): 220 mg/kg; LD50 ([4]; single intravenous injection, read-out: LD50, Intravenous injection): 84 mg/kg; IC50 (Rat Thoracic Aortas; Rattus norvegicus, Endothelial cell, group containing endothelial cells, read-out: IC50 (E+), concentration showing relaxation response of 50%): 8.75 µM; IC50 (Rat Thoracic Aortas; Rattus norvegicus, Endothelial cell, group not containing endothelial cells, read-out: IC50 (E−), concentration showing relaxation response of 50%): 51.5 µM
